From patent US20230054887A1, “SWEETENING AND TASTE-MASKING COMPOSITIONS, PRODUCTS AND USES THEREOF” (HEALTHTECH BIO ACTIVES, S.L.U., priority 2017, published 2023) come the findings set out here.

Assay type in all cases: in vivo
Assay [1] in a line: Sugar substitution in sweetened dark chocolate, calibrated panel. An excerpt:
The percentages in the table are expressed by weight.
The reference product (Formula 1 of Table 11) contained a commercial chocolate with 70% cacao content (Lindt®) and 6% of powdered sugar.
Along all the assays performed, the goal was to maximize the sucrose substitution while maintaining the same overall taste profile. A calibrated panel was not able to distinguish the reference from the different prototypes tested.
The method used for preparing the dark chocolate products of this assay was as follows. Firstly, 1% solution of NHDC in glycerol was prepared by gradually adding 1 g of NHDC to 99 g of glycerol, mixing and heating to 60° C. for 15 minutes, until a transparent solution is obtained. The solution was left to cool off to room temperature. The dark chocolate was weighed and heated to 45° C. and, when the chocolate was completely melted, powdered sugar was added and, optionally, also the 1% NHDC glycerol solution or the composition of Example B, and the mixture was then thoroughly mixed. The mixture was heated until reaching 45° C., then it was let to cool to 30° C., and then it was poured into molds (6 g/piece). The molds with the chocolate were put in the fridge for a quicker hardening.

The nature of assay [2]: Sugar (HFCS) substitution in orange soft drink, triangular test by calibrated panel. To be noted: orange soft drink sweetened with HFCS. The procedure: A reference orange soft drink sweetened with high fructose corn syrup (HFCS) was prepared, using the ingredients listed in Table 9 (Formula 1). All the percentages in the table are by weight.
For preparing the beverages, the following process was followed. The high fructose corn syrup was weighed in a 1 L beaker. The remaining minor ingredients (sodium benzoate, potassium sorbate, citric acid, orange soda colour and orange soda flavour) were separately weighed in small beakers, and water was added to each of the small beakers and mixed until solubilizing each ingredient. Once dissolved, all those minor ingredients were added to the 1 L beaker with the HFCS. The obtained solution was thoroughly mixed and water was added gradually to 1 Kg.
For assaying the possible substitution of HFCS with NHDC and with the composition of the present invention (Example B), a 0.1% mother solution of NHDC in water was prepared by gradually adding 0.1 g of NHDC to 99.9 g of water, mixing, and heating to 66° C. during 15 minutes until a yellowish solution was obtained; the solution was then left to cool to room temperature. […]
Maximum sugar substitution with NHDC was then determined by replacing increasing amounts of HFCS by NHDC and then passing the reference and the prototype through a triangular test by a calibrated panel.

Assay [3] in a line: Sucrose substitution in orange juice based soft drink, triangular testing by calibrated panel. An excerpt:
The purpose of this example was to maximize the sugar substitution in an orange juice based soft drink while maintaining the same overall taste profile. A calibrated panel was not able to distinguish the reference from the different prototypes in triangular testing.
The reference product (Formula 1 of Table 10) contained 10% added sucrose. The maximum sucrose substitution achieved with NHDC was 15% out of the initial 10 by using 10 ppm of NHDC (Formula 2 of Table 10). With the sweetening composition of the present invention, it was possible to increase the sucrose substitution, up to 25% without changing the taste profile of the beverage (Formula 3 of Table 10).
The composition of each beverage is disclosed in Table 10. For the preparation of these beverages, an orange juice concentrate 65° Bx (Dallant) and orange flavor #2N341/C (Dallant) were used. All the percentages in the table are by weight.

Assay [4] is described as follows: Sweetening synergy sensory test: concentration equisweet to sucrose reference solutions in water, expert panel. To be noted: for Relative sweetening power: ratio sucrose concentration / equisweet concentration; for Equisweet concentration: room temperature. The procedure:
A sensory test was performed to assess the sweetening synergism achieved with the composition of the invention (Examples A and B), and this effect was also compared to the effect obtained with analogous compositions containing beta-cyclodextrin (Comparative Examples A and B). Further compositions of the present invention (Examples C, D and E) were also assessed in this sensory test.
A group of expert panellists in sweet descriptors evaluated the sweetness of the different compositions as well as that of the ingredients NHDC, beta-cyclodextrin and gamma-cyclodextrin used alone.
Each evaluated sweetening agent was dissolved in water at different concentrations, at room temperature. The panel then determined, for each product, the concentration that was equisweet to the reference solutions of 1% and 3% sucrose in water. The results are summarized in Table 3 (Examples A and B are abbreviated as Ex. A and Ex. B, respectively, and the Comparative Examples A and B are abbreviated as Comp. A and Comp. B, respectively).
Since beta- and gamma-cyclodextrins are also sweet compounds, the equisweet concentrations of both cyclodextrins were also determined by the test panel to assess their possible contribution to the sweetness of the composition. […] Therefore, as the equisweet concentrations of both cyclodextrins are at least three orders of magnitude larger than those of NHDC, it was concluded that their contribution to the sweetness was negligible.
A more quantitative evaluation of the sweetness synergy provided by the compositions of the present invention was performed by comparing the real measured sweetness of the compositions comprising gamma-cyclodextrin and NHDC with the theoretical sweetness expected from the sum of the individual contribution of each component in the composition.
To this end, the relative sweetening power of each component was first calculated. For comparative purposes, the relative sweetening power of beta-cyclodextrin was also calculated. The relative sweetening power of a given compound, at a given sweetness level, indicates how many times sweeter this compound is than sucrose. It is therefore calculated as the ratio between the concentration of sucrose and the equisweet concentration of each ingredient, for each sweetness level.
From the relative sweetening power of each ingredient, it is possible to calculate the expected sweetness (sucrose equivalence) of a blend of those ingredients, according to Formula I:
Expected sweetness (sucrose equivalence) of a blend C1+C2=Concentration of compound C1×relative sweetening power of compound C1+Concentration of compound C2×relative sweetening power of compound C2
Then, the sweetness synergy of a blend of components can be calculated according to Formula II: […]
As disclosed above in Example 3, the relative sweetening power of a given compound, at a given sweetness level, indicates how many times sweeter than sucrose the compound is, and the value is calculated as the ratio between the concentration of sucrose and the equisweet concentration of the compound.

Values joined by “and” are separate entries in the source; they are usually repeats but may differ in a detail not shown here. Equal entries are not always repeated.

Consider `COc1ccc(CCC(=O)c2c(O)cc(O[C@@H]3O[C@H](CO)[C@@H](O)[C@H](O)[C@H]3O[C@@H]3O[C@@H](C)[C@H](O)[C@@H](O)[C@H]3O)cc2O)cc1O` [NHDC, 1-[4-[[2-O-(6-Deoxy-α-L-mannopyranosyl)-β-D-glucopyranosyl]oxy]-2,6-dihydroxyphenyl]-3-(3-hydroxy-4-methoxyphenyl)propan-1-one], for which the “Amount used for the maximum sugar substitution” value in assay [1] came out at 3 ppm. In addition, the “Maximum sugar substitution without changing the taste profile” value in assay [1] (reference with 6% powdered sugar) is on record as 10%. The “Amount needed to obtain 10% sugar substitution” value in assay [2] was 10 ppm. Besides, the “Maximum sugar substitution without any noticeable difference in a triangular test” value in assay [2] amounted to 10%. Moreover, the “Amount used for the maximum sucrose substitution” value in assay [3] was determined as 10 ppm. For the same compound, the “Maximum sucrose substitution without changing the taste profile” value in assay [3] (reference with 10% added sucrose) is recorded as 15%. The Relative sweetening power in assay [4] (1% sucrose level) is on record as 2000; in assay [4] (3% sucrose level), 1250. Further, the “NHDC amount contained in the equisweet concentration” value was “(5.0) ppm” in assay [4] (1% sucrose sweetness level) and “(24.0) ppm” in assay [4] (3% sucrose sweetness level). The Equisweet concentration in assay [4] (equisweet to 1% sucrose in water) is 5 ppm and 5.0 ppm; in assay [4] (equisweet to 3% sucrose in water), 24 ppm and 24.0 ppm.
